From patent publication US7138361B2, “Herbicidal heterocycles” (E. I. du Pont de Nemours and Company, priority 2000, dated 2006)

Experiments:
Assay type in all cases: in vivo
rice (Oryza saliva) = test: Test C flooded paddy test; conditions: for Plant response rating, Rice: scale 0 to 100 (0 no effect, 100 complete control)
Method in brief: (§1)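 Ratings come from visual comparison with control plants after 12 to 14 days in the greenhouse. Each species was at the 2-leaf stage when the flooded paddy was treated. Scores run from 0, meaning no effect, to 100, meaning complete control.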

[1] = tested on: barnyardgrass (Echinochloa crus-galli); test: Test C flooded paddy test; conditions: for Plant response rating, Barnyardgrass: scale 0 to 100 (0 no effect, 100 complete control)
Method in brief: as §1

[2] = tested on: duck salad (Heteranthera limosa); test: Test C flooded paddy test; conditions: for Plant response rating, Ducksalad: scale 0 to 100 (0 no effect, 100 complete control)
Method in brief: as §1

[3] = tested on: smallflower flatsedge (Cyperus difformis); test: Test C flooded paddy test; conditions: for Plant response rating, Flatsedge: scale 0 to 100 (0 no effect, 100 complete control)
Method in brief: as §1

Sunflower = test: Test C preemergence; conditions: Rate 125 g/ha; scale 0 to 100, 0 no effect, 100 complete control
[4] = tested on: cocklebur (Xanthium strumarium); test: Test C preemergence
Method in brief: (§2)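 Formulation: non-phytotoxic solvent mix incl. surfactant. Pre: applied right after planting. Post: 1–4-leaf seedlings. Read: visual 0–100, day 12–14, greenhouse.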

[5] = tested on: common ragweed (Ambrosia elatior); test: Test C preemergence
Method in brief: as §2

soybean (Glycine max) = test: Test C preemergence
Method in brief: as §2

[6] = tested on: bermudagrass (Cynodon dactylon); test: Test C preemergence
Method in brief: as §2

[7] = tested on: pigweed (Amaranthus retroflexus); test: Test C preemergence
Method in brief: as §2

[8] = tested on: Surinam grass (Brachiaria decumbens); test: Test C preemergence
Method in brief: as §2

[9] = tested on: johnsongrass (Sorghum halepense); test: Test C preemergence
Method in brief: as §2

[10] = tested on: giant foxtail (Setaria faberii); test: Test C preemergence
Method in brief: as §2

Nightshade = test: Test C preemergence
corn (Zea mays) = test: Test C preemergence
Method in brief: as §2

[11] = tested on: yellow nutsedge (Cyperus esculentus); test: Test C preemergence
Method in brief: as §2

[12] = tested on: goosegrass (Eleusine indica); test: Test C preemergence
Method in brief: as §2

[13] = tested on: morningglory (Ipomoea hederacea); test: Test C preemergence
Method in brief: as §2

[14] = tested on: crabgrass (Digitaria sanguinalis); test: Test C preemergence
Method in brief: as §2

kochia (Kochia scoparia) = test: Test C preemergence
Method in brief: as §2

[15] = tested on: velvetleaf (Abutilon theophrasti); test: Test C preemergence
Method in brief: as §2

[16] = tested on: woolly cupgrass (Eriochloa villosa); test: Test C preemergence
Method in brief: as §2

[17] = Flooded Paddy, Rate 500 g/ha, scale 0 to 100, 0 no effect, 100 complete control
[18] = flooded paddy test, Rate 125 g/ha
[19] = flooded paddy test, Rate 250 g/ha
[20] = flooded paddy test, Rate 62 g/ha, visually evaluated after 12 to 14 days, 0 = no effect, 100 = complete control
[21] = Rate 125 g/ha, scale 0 to 100, 0 no effect, 100 complete control
[22] = preemergence, Rate 31 g/ha, scale 0 to 100
[23] = preemergence, Rate 62 g/ha, scale 0 to 100
[24] = preemergence, Rate 250 g/ha, scale 0 to 100, 0 no effect, 100 complete control

`Cc1cc(C)nc(N2CCC(n3ccc(C(C)(C)C)n3)C2=O)c1` (stereo not drawn) [Compound 138] was tested, and the “Rice plant response rating” value (rice (Oryza saliva); [17]) was 70, the “Plant response rating, Rice” value (rice (Oryza saliva); [18]) was 0 and the “Plant response rating, Rice” value (rice (Oryza saliva); [19]) was 30. For the same compound, the “Plant response rating (scale 0 to 100), Rice” value (rice (Oryza saliva); [20]) was 0, the “Barnyardgrass plant response rating” value [1, 17] was 100 and the “Plant response rating, Barnyardgrass” value [1, 18] was 40. The “Plant response rating, Barnyardgrass” value [1, 19] was 100, the “Plant response rating (scale 0 to 100), Barnyardgrass” value [1, 20] was 0 and the “Ducksalad plant response rating” value [2, 17] was 100. The “Plant response rating, Ducksalad” value [2, 18] was 20, the “Plant response rating, Ducksalad” value [2, 19] was 60 and the “Plant response rating (scale 0 to 100), Ducksalad” value [2, 20] was 0. The “Flatsedge plant response rating” value [3, 17] was 100, the “Plant response rating, Flatsedge” value [3, 18] was 90 and the “Plant response rating, Flatsedge” value [3, 19] was 100. For the same compound, the “Plant response rating (scale 0 to 100), Flatsedge” value [3, 20] was 90, the “Plant response rating, Sunflower” value (Sunflower) was 0 and the “Plant response rating, Cocklebur” value [4, 21] was 0. The “Plant response rating, Cocklebur” value [4, 22] was 0, the “Plant response rating, Cocklebur” value [4, 23] was 0 and the “Plant response rating, Cocklebur” value [4, 24] was 0. The “Plant response rating, Ragweed, Common” value [5, 21] was 0, the “Plant response rating, Ragweed, Common” value [5, 22] was 0 and the “Plant response rating, Ragweed, Common” value [5, 23] was 0. For the same compound, the “Plant response rating, Ragweed, Common” value [5, 24] was 30, the “Plant response rating, Soybean” value (soybean (Glycine max); [21]) was 60 and the “Plant response rating, Soybean” value (soybean (Glycine max); [23]) was 30. For the same compound, the “Plant response rating, Soybean” value (soybean (Glycine max); [24]) was 100, the “Plant response rating, Bermudagrass” value [6, 21] was 70 and the “Plant response rating, Bermudagrass” value [6, 22] was 60. For the same compound, the “Plant response rating, Bermudagrass” value [6, 23] was 70, the “Plant response rating, Bermudagrass” value [6, 24] was 100 and the “Plant response rating, Pigweed” value [7, 21] was 50. For the same compound, the “Plant response rating, Pigweed” value [7, 22] was 0, the “Plant response rating, Pigweed” value [7, 23] was 30 and the “Plant response rating, Pigweed” value [7, 24] was 50. For the same compound, the “Plant response rating, Surinam grass” value [8, 21] was 0, the “Plant response rating, Surinam grass” value [8, 22] was 0 and the “Plant response rating, Surinam grass” value [8, 23] was 0. The “Plant response rating, Surinam grass” value [8, 24] was 100, the “Plant response rating, Johnsongrass” value [9, 21] was 30 and the “Plant response rating, Johnsongrass” value [9, 22] was 0. The “Plant response rating, Johnsongrass” value [9, 23] was 0, the “Plant response rating, Johnsongrass” value [9, 24] was 40 and the “Plant response rating, Foxtail, Giant” value [10, 21] was 100. For the same compound, the “Plant response rating, Foxtail, Giant” value [10, 22] was 50, the “Plant response rating, Foxtail, Giant” value [10, 23] was 80 and the “Plant response rating, Foxtail, Giant” value [10, 24] was 100. For the same compound, the “Plant response rating, Nightshade” value (Nightshade; Rate 31 g/ha, scale 0 to 100) was 0, the “Plant response rating, Nightshade” value (Nightshade; Rate 62 g/ha, scale 0 to 100) was 0 and the “Plant response rating, Nightshade” value (Nightshade; [21]) was 50. For the same compound, the “Plant response rating, Nightshade” value (Nightshade; Rate 250 g/ha, scale 0 to 100, 0 no effect, 100 complete control) was 90, the “Plant response rating, Corn” value (corn (Zea mays); [21]) was 0 and the “Plant response rating, Corn” value (corn (Zea mays); [22]) was 0. The “Plant response rating, Corn” value (corn (Zea mays); [23]) was 0, the “Plant response rating, Corn” value (corn (Zea mays); [24]) was 30 and the “Plant response rating, Nutsedge” value [11, 21] was 0. The “Plant response rating, Nutsedge” value [11, 22] was 0, the “Plant response rating, Nutsedge” value [11, 23] was 0 and the “Plant response rating, Nutsedge” value [11, 24] was 40. For the same compound, the “Plant response rating, Goosegrass” value [12, 21] was 90, the “Plant response rating, Goosegrass” value [12, 22] was 20 and the “Plant response rating, Goosegrass” value [12, 23] was 80. For the same compound, the “Plant response rating, Goosegrass” value [12, 24] was 100, the “Plant response rating, Morningglory” value [13, 21] was 80 and the “Plant response rating, Morningglory” value [13, 22] was 30. The “Plant response rating, Morningglory” value [13, 23] was 30, the “Plant response rating, Morningglory” value [13, 24] was 80 and the “Plant response rating, Crabgrass” value [14, 21] was 100. The “Plant response rating, Crabgrass” value [14, 22] was 20, the “Plant response rating, Crabgrass” value [14, 23] was 70 and the “Plant response rating, Crabgrass” value [14, 24] was 100. The “Plant response rating, Kochia” value (kochia (Kochia scoparia); [21]) was 100, the “Plant response rating, Kochia” value (kochia (Kochia scoparia); [22]) was 60 and the “Plant response rating, Kochia” value (kochia (Kochia scoparia); [23]) was 90. For the same compound, the “Plant response rating, Kochia” value (kochia (Kochia scoparia); [24]) was 100, the “Plant response rating, Velvetleaf” value [15, 21] was 0 and the “Plant response rating, Velvetleaf” value [15, 22] was 0. The “Plant response rating, Velvetleaf” value [15, 23] was 0, the “Plant response rating, Velvetleaf” value [15, 24] was 0 and the “Plant response rating, Cupgrass, Woolly” value [16, 21] was 60. For the same compound, the “Plant response rating, Cupgrass, Woolly” value [16, 22] was 0, the “Plant response rating, Cupgrass, Woolly” value [16, 23] was 40 and the “Plant response rating, Cupgrass, Woolly” value [16, 24] was 100.
